The target in one data set is human S1P1 receptor (Homo sapiens, UniProt P21453). Nature of the data set: agonistic activity at human S1P1 receptor. In kind it is biochemical. Particulars: compared with S1P4 and S1P5.
The target in the next data set is T1, human S1P4 receptor (Homo sapiens, UniProt O95977).
T1 sequence (O95977 1-384): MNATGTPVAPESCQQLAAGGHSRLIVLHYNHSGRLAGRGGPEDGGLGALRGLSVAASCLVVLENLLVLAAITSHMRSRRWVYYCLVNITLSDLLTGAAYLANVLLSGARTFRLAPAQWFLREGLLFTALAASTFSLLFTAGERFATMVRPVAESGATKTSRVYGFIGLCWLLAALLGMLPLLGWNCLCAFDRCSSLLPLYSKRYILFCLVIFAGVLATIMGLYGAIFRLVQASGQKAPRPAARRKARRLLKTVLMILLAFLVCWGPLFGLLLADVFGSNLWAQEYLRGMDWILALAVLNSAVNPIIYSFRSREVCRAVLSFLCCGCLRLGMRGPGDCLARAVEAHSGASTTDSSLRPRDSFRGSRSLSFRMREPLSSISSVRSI
In words: agonistic activity at human S1P4 receptor. The format is biochemical. The following applies: less potent than at human S1P1 receptor.

In a further data set the target is human S1Ps receptor (Homo sapiens, UniProt Q9H228). In words: agonistic activity at human S1Ps receptor. In kind it is biochemical. The following applies: less potent than at human S1P1 receptor.
For the next data set, the target named is human S1P2 receptor (Homo sapiens, UniProt O95136). In words: agonistic activity at human S1P2 receptor. In kind it is biochemical.
A further data set has as its target S1P3 receptor (Homo sapiens, UniProt Q99500). In words: agonistic activity at S1P3 receptor. The format is biochemical.
Data set [1] is described as follows: half-life and accumulation to steady state. The format is in vivo, humans. Particulars: for half-life: in humans; for period of accumulation to steady state: inferred from long half-life.
Data set [2] is described as follows: study of amiselimod 0.4 mg QD: steady state, AUC, Cmax, lymphocyte counts. The format is in vivo. Particulars: for increase of steady-state AUC on day 13 compared with day 1 / increase of steady-state Cmax on day 13 compared with day 1: amiselimod 0.4 mg QD. How it is done:
Amiselimod has a half-life of about 400 hours. For example, amiselimod has a terminal half-life that is about 20 times longer than etrasimod, which has a half-life of about 17-20 hours. In a study, a daily dose of amiselimod achieved a therapeutic steady state after 14 days of 0.4 mg QD administration. On day 13, the steady-state AUC and Cmax for amiselimod 0.4 mg QD increased by 10-fold for amiselimod and by 4-fold for amiselimod-P compared with day 1. This increase in AUC and Cmax correlated with gradual decrease in absolute lymphocyte counts. The reduction in lymphocyte counts was maintained after amiselimod discontinuation, indicating a persistent therapeutic amiselimod AUC owing in part to the associated half-life. Accordingly, amiselimod may be administered in accordance with the methods described herein less frequently than once daily to achieve the desired treatment such, as for example, maintenance of Ulcerative Colitis. In some embodiments, the second dose may be administered during the second administration period (e.g., the maintenance dose phase) QD, BID, TID, or QID every other day during the second administration period or every two days during the second administration period or every three days during the second administration period or every four days during the second administration period or every five days during the second administration period or every six days during the second administration period or every seven days during the second administration period.

Another data set concerns healthy subjects. In words: Phase 1 randomized, double-blind, placebo-controlled safety study, upwardly titrated amiselimod. Particulars: for discontinuation rate: safety population, 95 subjects per group. In kind it is in vivo, human. As to the method: The safety of amiselimod in healthy subjects was evaluated in a Phase 1 randomized, double-blind, placebo-controlled study where the dose of amiselimod was upwardly titrated.
A randomized, double-blind, multiple-dose, placebo-controlled, parallel study with a nested crossover design evaluated the safety and tolerability profile of amiselimod. Healthy adults were randomized in a 2:1:1 ratio during a 28-day treatment period accordingly: a single dose of placebo followed by oral amiselimod (upwardly titrated in doses ranging from 0.4 to 1.6 mg to achieve steady-state concentrations); a single dose of oral moxifloxacin 400 mg followed by placebo; or placebo followed by a single dose of moxifloxacin 400 mg (for the safety analysis, moxifloxacin arms were combined). The safety population included all subjects who received at least one dose of treatment. Adverse events (AE) and serious AEs were collected. Treatment-emergent AEs were defined as an AE that was starting or worsening at the time of or after study drug administration. Changes in clinical laboratory parameters (including lymphocyte counts), physical examinations, vital signs, and electrocardiogram parameters (including heart rate, PR, QRS, and QT intervals) were recorded. Subjects were permitted to withdraw if lymphocyte counts were ≤0.2×10^9/L.

Data set [3] has as its system peripheral blood lymphocytes (PBLs). In words: reduction of peripheral blood lymphocytes after oral dose, mice. The format is in vivo. Particulars: oral dose of 0.1 mg/kg or higher.
The test system is the same in data set [4]. In words: reduction of peripheral blood lymphocytes after oral dose, rats. In kind it is in vivo. The following applies: oral dose of 0.1 mg/kg or higher.
The test system is the same in data set [5]. In words: reduction of peripheral blood lymphocytes after oral dose, cynomolgus monkeys. Particulars: oral dose of 0.1 mg/kg or higher. The format is in vivo.
Data set [6] has as its system colitis in the adoptive transfer of CD4+CD45RBhigh T cells. Nature of the data set: colitis in the adoptive transfer of CD4+CD45RBhigh T cells in SCID mice. In kind it is in vivo. Particulars: oral administration.
Another data set concerns heart rate. Nature of the data set: negative chronotropic activity. The following applies: in vivo. The source says:
Chronotropic effects in the heart can include changes in the heart rate or rhythm. Negative chronotropic effects are those that result in a decreased heart rate and include bradyarrhythmia (bradycardia).

For data set [7] the following is noted: comparator etrasimod; cited from earlier work.

Where two headings read alike, the source gives them in different places.

In general, half-life refers to how long it takes for the measured level to halve.

Chain of S1P3 receptor (Q99500 whole entry): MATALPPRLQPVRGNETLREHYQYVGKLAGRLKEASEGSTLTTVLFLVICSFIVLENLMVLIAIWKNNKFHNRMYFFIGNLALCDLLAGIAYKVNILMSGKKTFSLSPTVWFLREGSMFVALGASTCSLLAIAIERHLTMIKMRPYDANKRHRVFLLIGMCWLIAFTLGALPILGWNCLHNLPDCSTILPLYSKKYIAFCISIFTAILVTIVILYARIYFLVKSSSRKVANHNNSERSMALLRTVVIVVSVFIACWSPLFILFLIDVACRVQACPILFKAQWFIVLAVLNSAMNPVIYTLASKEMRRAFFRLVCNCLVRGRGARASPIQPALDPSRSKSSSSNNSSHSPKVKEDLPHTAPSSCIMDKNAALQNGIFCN
Chain of human S1P1 receptor (P21453 whole entry): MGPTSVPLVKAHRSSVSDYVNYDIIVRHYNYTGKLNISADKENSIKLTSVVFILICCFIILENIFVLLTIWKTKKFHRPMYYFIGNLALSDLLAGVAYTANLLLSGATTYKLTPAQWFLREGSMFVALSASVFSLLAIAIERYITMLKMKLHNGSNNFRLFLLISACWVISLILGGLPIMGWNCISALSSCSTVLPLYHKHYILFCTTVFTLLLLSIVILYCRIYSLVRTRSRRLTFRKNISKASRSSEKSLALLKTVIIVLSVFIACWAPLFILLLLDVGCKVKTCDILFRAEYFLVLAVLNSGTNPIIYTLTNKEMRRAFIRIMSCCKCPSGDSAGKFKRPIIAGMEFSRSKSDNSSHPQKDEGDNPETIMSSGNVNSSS
Chain of human S1Ps receptor (Q9H228 whole entry): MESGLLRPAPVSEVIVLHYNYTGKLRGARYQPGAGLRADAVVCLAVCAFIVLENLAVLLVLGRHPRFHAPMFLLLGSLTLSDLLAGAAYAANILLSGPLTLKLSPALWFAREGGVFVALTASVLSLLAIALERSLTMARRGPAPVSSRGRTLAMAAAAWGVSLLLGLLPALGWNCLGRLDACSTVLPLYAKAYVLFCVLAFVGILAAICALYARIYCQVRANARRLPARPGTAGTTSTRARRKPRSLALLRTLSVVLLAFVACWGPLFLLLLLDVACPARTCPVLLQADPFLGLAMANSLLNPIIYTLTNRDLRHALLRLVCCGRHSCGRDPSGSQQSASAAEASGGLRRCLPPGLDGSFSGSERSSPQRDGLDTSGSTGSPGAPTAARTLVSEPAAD
Chain of human S1P2 receptor (O95136 whole entry): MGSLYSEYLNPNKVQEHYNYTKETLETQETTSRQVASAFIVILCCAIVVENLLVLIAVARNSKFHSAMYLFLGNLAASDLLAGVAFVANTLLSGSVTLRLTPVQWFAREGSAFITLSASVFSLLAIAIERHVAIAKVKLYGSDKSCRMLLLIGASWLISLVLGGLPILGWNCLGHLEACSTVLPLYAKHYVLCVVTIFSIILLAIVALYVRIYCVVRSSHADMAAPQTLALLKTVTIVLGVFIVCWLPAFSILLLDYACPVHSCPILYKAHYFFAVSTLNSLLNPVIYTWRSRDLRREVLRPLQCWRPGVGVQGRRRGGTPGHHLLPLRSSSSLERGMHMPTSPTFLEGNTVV

With `CCCCCCCOc1ccc(CCC(N)(CO)COP(=O)(O)O)cc1C(F)(F)F` (stereo in doubt) [(S)-MT-1303-P], the “agonistic activity at human S1P1 receptor” value on human S1P1 receptor was “more potently than at human S1P4 receptor and human S1Ps receptor”. In addition, the “agonistic activity at human S1P4 receptor” value on human S1P4 receptor was “agonistic activity”. Moreover, the “agonistic activity at human S1Ps receptor” value at human S1Ps receptor is on record as “agonistic activity”. Also, the “agonistic activity at human S1P2 receptor” value at human S1P2 receptor is reported as “no agonistic activity”. Further, the “agonistic activity at S1P3 receptor” value at S1P3 receptor was “no agonistic activity”.

For the molecule `CCCCCCCOc1ccc(CC[C@@](N)(CO)COP(=O)(O)O)cc1C(F)(F)F` [MT-1303-P], in data set [1], the half-life entry was “approximately 400 hours” and the “period of accumulation to steady state” value is reported as “about 10 weeks”. Moreover, in [2], the “increase of steady-state AUC on day 13 compared with day 1” value is on record as 4 fold and the “increase of steady-state Cmax on day 13 compared with day 1” value came to 4 fold.

As for `COc1c(N2C[C@@H]3CCCN[C@@H]3C2)c(F)cc2c(=O)c(C(=O)O)cn(C3CC3)c12` [Moxifloxacin, moxifloxacin, reference compound], in the data set on healthy subjects (Days 1-26, n = 95), the Constipation is on record as 11 (12) n (%), the Dizziness is 1 (1) n (%), the Headache was 12 (13) n (%) and the “Number of subjects with an adverse event” value is 49 (52) n (%). Also, in the data set on healthy subjects (Days 1-26, n = 95), the “Upper respiratory tract infection” value is 1 (1) n (%) and the “White blood cell count decreased” value is given as 0 n (%). In the data set with healthy subjects (Days 27+, n = 46), the Constipation was 0 n (%), the Dizziness was 1 (2) n (%), the Headache is listed as 0 n (%) and the “Number of subjects with an adverse event” value is 7 (15) n (%). Moreover, in the data set with healthy subjects (Days 27+, n = 46), the “Upper respiratory tract infection” value is 0 n (%) and the “White blood cell count decreased” value is on record as 0 n (%). Moreover, the discontinuation rate in the data set on healthy subjects is 4%.

As to `CCCCCCCOc1ccc(CCC(N)(CO)CO)cc1C(F)(F)F` [amiselimod], the half-life in data set [1] (human, in vivo, read-out: half-life (converted)) was around 16.7 days. In addition, in data set [1], the half-life entry is on record as “approximately 400 hours” and the “period of accumulation to steady state” value is recorded as “about 10 weeks”. Besides, the “terminal half-life relative to etrasimod” value in data set [1] (longer than etrasimod) is reported as “about 20 times”. The “number of peripheral blood lymphocytes (PBLs)” value (“number … (PBLs)” for short) in [3] was “significantly reduced”. Further, the “number … (PBLs)” value in data set [4] is “significantly reduced”. For the same molecule, the “number … (PBLs)” value in data set [5] was “significantly reduced”. In addition, in [6], the colitis entry is “reduced colitis” and the “effect on colitis compared with murine anti-TNF-α antibody” value is given as “comparable to that of a murine anti-tumor necrosis factor-α (TNF-α) antibody”. The negative chronotropic activity entry in the data set on heart rate is “lack of negative chronotropic activity”. Besides, in [2] (0.4 mg QD administration), the “time to therapeutic steady state” value worked out at 14 days. In data set [2] (after amiselimod discontinuation), the “reduction in lymphocyte counts after discontinuation” value is given as “maintained”. In addition, in data set [2], the “increase of steady-state AUC on day 13 compared with day 1” value turned out to be 10 fold and the “increase of steady-state Cmax on day 13 compared with day 1” value is reported as 10 fold. Also, in the data set with healthy subjects (Days 1-13, n = 95), the Constipation is 8 (8) n (%), the Dizziness is 5 (5) n (%), the Headache is on record as 4 (4) n (%) and the “Number of subjects with an adverse event” value is on record as 55 (58) n (%). For the same molecule, in the data set with healthy subjects (Days 1-13, n = 95), the “Upper respiratory tract infection” value is listed as 1 (1) n (%) and the “White blood cell count decreased” value is recorded as 18 (19) n (%). In the data set on healthy subjects (Days 14+, n = 92), the Constipation is recorded as 6 (7) n (%), the Dizziness is recorded as 6 (7) n (%), the Headache is 11 (12) n (%) and the “Number of subjects with an adverse event” value is on record as 57 (62) n (%). For the same molecule, in the data set with healthy subjects (Days 14+, n = 92), the “Upper respiratory tract infection” value was 6 (7) n (%) and the “White blood cell count decreased” value is 13 (14) n (%). Besides, the “amiselimod-related serious AE of atrial fibrillation” value in the data set with healthy subjects (day 26, after amiselimod 1.6 mg for 3 of the preceding 4 days) is reported as “One subject”. Also, the “mean absolute lymphocyte count, nadir” value with healthy subjects (day 27) is 0.424 thou/μL. For the same molecule, in the data set on healthy subjects (in vivo), the “changes to vital signs, physical examinations, and ECG parameters” value is “within normal limits”. In addition, the tolerability entry in the data set on healthy subjects (multiple, upwardly titrated doses, healthy subjects) is on record as “generally well tolerated”. Moreover, the “mean absolute lymphocyte count” value with healthy subjects (predose) was 1.681 thou/μL. Moreover, the discontinuation rate in the data set on healthy subjects is on record as 8%.

`O=C(O)C[C@H]1CCc2c1[nH]c1ccc(OCc3ccc(C4CCCC4)c(C(F)(F)F)c3)cc21` [etrasimod]: in data set [7], the half-life is 0.708 to 0.833 days.

(Values after patent publication US20240299318A1, “AMISELIMOD FOR PREVENTING, TREATING OR AMELIORATING ULCERATIVE COLITIS” (Bausch Health Ireland Limited, priority 2021, published 2024).)
